Results taken from ChEMBL document CHEMBL1201862, “PubChem BioAssay data set” (2004).
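Grown in 96-well plates, cells were treated for 48 hours with each compound at five concentrations. Insufficient inhibition: endpoint recorded as highest concentration tested. GI50 is the concentration that inhibits growth by half.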 The source made the active and inactive calls. Rule as the data show it: active = GI50 up to about 1.1 µM and inactive = higher.

Tests used:
Assay in all cases: NCI-60 cell line screen, 48 h
[1] = tested on: A549
[2] = tested on: HL-60
[3] = tested on: HOP-92
[4] = tested on: K562
[5] = tested on: LOX IMVI
[6] = tested on: Malme-3M
[7] = tested on: NCI-H522
[8] = tested on: SF-268
[9] = tested on: SF-295
[10] = tested on: SF-539
[11] = tested on: SK-MEL-28
[12] = tested on: SK-MEL-2
[13] = tested on: SK-MEL-5
[14] = tested on: SNB-75
[15] = tested on: UACC-257
[16] = tested on: HCT-116

With `O=C1c2ccccc2C2(Br)C(=O)c3ccccc3C12` (stereo not given) as the molecule, how does the GI50 [1] read?
Its GI50 is > 100 µM (inactive).

And the GI50 [2]?
The GI50 was > 100 µM (inactive).

What about the GI50 [3] of the same molecule?
Its GI50 is > 100 µM (inactive).

And the GI50 [4]?
The GI50 was > 100 µM (inactive).

What about the GI50 [5] of the same molecule?
Its GI50 is 11.1 µM (inactive).

What about the GI50 [6] of the same molecule?
The GI50 was > 100 µM (inactive).

And the GI50 [7]?
Its GI50 is > 100 µM (inactive).

What about the GI50 [8] of the same molecule?
The GI50 was > 100 µM (inactive).

And the GI50 [9]?
The GI50 was > 100 µM (inactive).

And the GI50 [10]?
The GI50 was > 100 µM (inactive).

What about the GI50 [11] of the same molecule?
The GI50 was > 100 µM (inactive).

What about the GI50 [12] of the same molecule?
The GI50 was > 100 µM (inactive).

And the GI50 [13]?
The GI50 was > 100 µM (inactive).

And the GI50 [14]?
Its GI50 is > 100 µM (inactive).

What about the GI50 [15] of the same molecule?
The GI50 was > 100 µM (inactive).

Which results are given for `CN(CCN(C)C(=O)CCn1ccc(=O)[nH]c1=O)C(=O)CCn1ccc(=O)[nH]c1=O`?
GI50 [1]: > 100 µM (inactive); GI50 [16]: > 100 µM (inactive); GI50 [2]: > 100 µM (inactive); GI50 [4]: > 100 µM (inactive); GI50 [5]: > 100 µM (inactive); GI50 [6]: > 100 µM (inactive); GI50 [7]: > 100 µM (inactive); GI50 [8]: > 100 µM (inactive); GI50 [9]: > 100 µM (inactive); GI50 [10]: > 100 µM (inactive); GI50 [11]: > 100 µM (inactive); GI50 [12]: > 100 µM (inactive); GI50 [13]: > 100 µM (inactive); GI50 [14]: 22.4 µM (inactive)

Which GI50 [1] does the source give for `COc1cc(Br)c(/C=N\c2cccc3cc(OC)c(OC)cc23)cc1OC` here?
Its GI50 is > 100 µM (inactive).

What about the GI50 [16] of the same molecule?
Its GI50 is 34.3 µM (inactive).

And the GI50 [2]?
Its GI50 is 11.3 µM (inactive).

And the GI50 [3]?
Its GI50 is 28.2 µM (inactive).

And the GI50 [4]?
The GI50 was 19.9 µM (inactive).

What about the GI50 [5] of the same molecule?
Its GI50 is 35.3 µM (inactive).

What about the GI50 [6] of the same molecule?
The GI50 was 54.1 µM (inactive).

And the GI50 [7]?
Its GI50 is > 100 µM (inactive).

What about the GI50 [8] of the same molecule?
Its GI50 is 45.4 µM (inactive).

What about the GI50 [9] of the same molecule?
The GI50 was 25.9 µM (inactive).

What about the GI50 [10] of the same molecule?
The GI50 was 22.1 µM (inactive).

What about the GI50 [11] of the same molecule?
The GI50 was 88.3 µM (inactive).

And the GI50 [13]?
The GI50 was 36.1 µM (inactive).

And the GI50 [14]?
The GI50 was 16.8 µM (inactive).

And the GI50 [15]?
The GI50 was 85.7 µM (inactive).

How did the GI50 [1] turn out when `O=C1CC(C[C@H](O)C2CCCCC2O)CC(=O)N1Cc1ccccc1` (stereo not given in full) was run?
Its GI50 is > 100 µM (inactive).

What about the GI50 [16] of the same molecule?
Its GI50 is > 100 µM (inactive).

And the GI50 [2]?
Its GI50 is > 100 µM (inactive).

What about the GI50 [4] of the same molecule?
Its GI50 is > 100 µM (inactive).

And the GI50 [5]?
Its GI50 is > 100 µM (inactive).

And the GI50 [6]?
Its GI50 is > 100 µM (inactive).

What about the GI50 [7] of the same molecule?
The GI50 was > 100 µM (inactive).

What about the GI50 [8] of the same molecule?
Its GI50 is > 100 µM (inactive).

What about the GI50 [9] of the same molecule?
Its GI50 is > 100 µM (inactive).

And the GI50 [10]?
Its GI50 is > 100 µM (inactive).

What about the GI50 [11] of the same molecule?
The GI50 was > 100 µM (inactive).

What about the GI50 [12] of the same molecule?
Its GI50 is > 100 µM (inactive).

What about the GI50 [13] of the same molecule?
Its GI50 is > 100 µM (inactive).

And the GI50 [14]?
The GI50 was > 100 µM (inactive).

What about the GI50 [15] of the same molecule?
The GI50 was > 100 µM (inactive).

How did the GI50 [1] turn out when `C[N+]1(C)C/C(=C\c2ccccc2)C(=O)/C(=C/c2ccccc2)C1` was run?
Its GI50 is > 100 µM (inactive).

What about the GI50 [16] of the same molecule?
Its GI50 is > 100 µM (inactive).

What about the GI50 [2] of the same molecule?
The GI50 was > 100 µM (inactive).

And the GI50 [3]?
The GI50 was > 100 µM (inactive).

And the GI50 [4]?
Its GI50 is 62.2 µM (inactive).

What about the GI50 [6] of the same molecule?
The GI50 was > 100 µM (inactive).

What about the GI50 [8] of the same molecule?
The GI50 was > 100 µM (inactive).

What about the GI50 [9] of the same molecule?
The GI50 was > 100 µM (inactive).

And the GI50 [10]?
Its GI50 is > 100 µM (inactive).

What about the GI50 [11] of the same molecule?
Its GI50 is > 100 µM (inactive).

What about the GI50 [13] of the same molecule?
Its GI50 is 72.8 µM (inactive).

And the GI50 [14]?
Its GI50 is > 100 µM (inactive).

What about the GI50 [15] of the same molecule?
Its GI50 is > 100 µM (inactive).

`COC(=O)C1(C(C)C)CCc2c(OC)ccc(OC)c2C1=O` (stereo not given) was tested. Which GI50 [1] did it give?
Its GI50 is > 100 µM (inactive).

What about the GI50 [16] of the same molecule?
Its GI50 is > 100 µM (inactive).

What about the GI50 [2] of the same molecule?
Its GI50 is > 100 µM (inactive).

What about the GI50 [4] of the same molecule?
Its GI50 is > 100 µM (inactive).

What about the GI50 [5] of the same molecule?
Its GI50 is > 100 µM (inactive).

What about the GI50 [6] of the same molecule?
Its GI50 is > 100 µM (inactive).

What about the GI50 [7] of the same molecule?
Its GI50 is > 100 µM (inactive).

And the GI50 [8]?
Its GI50 is > 100 µM (inactive).

What about the GI50 [9] of the same molecule?
The GI50 was > 100 µM (inactive).

And the GI50 [10]?
The GI50 was > 100 µM (inactive).

And the GI50 [11]?
The GI50 was > 100 µM (inactive).

And the GI50 [12]?
The GI50 was > 100 µM (inactive).

And the GI50 [13]?
The GI50 was > 100 µM (inactive).

And the GI50 [15]?
The GI50 was > 100 µM (inactive).

With `NCCNCCNCc1c2ccccc2c(CNCCNCCN)c2ccccc12` as the molecule, how does the GI50 [1] read?
Its GI50 is 79.3 µM (inactive).

And the GI50 [16]?
The GI50 was 38 µM (inactive).

What about the GI50 [2] of the same molecule?
The GI50 was 46.1 µM (inactive).

And the GI50 [3]?
Its GI50 is 22.3 µM (inactive).

What about the GI50 [4] of the same molecule?
The GI50 was 25.4 µM (inactive).

And the GI50 [5]?
The GI50 was 70.6 µM (inactive).

What about the GI50 [6] of the same molecule?
Its GI50 is 84.9 µM (inactive).

What about the GI50 [8] of the same molecule?
Its GI50 is 69.5 µM (inactive).

And the GI50 [9]?
Its GI50 is 41.4 µM (inactive).

What about the GI50 [10] of the same molecule?
The GI50 was 37.5 µM (inactive).

What about the GI50 [11] of the same molecule?
Its GI50 is > 100 µM (inactive).

And the GI50 [12]?
The GI50 was > 100 µM (inactive).

And the GI50 [13]?
The GI50 was > 100 µM (inactive).

And the GI50 [15]?
The GI50 was > 100 µM (inactive).

Which results are given for `c1ccc(C2CC(c3ccc4ccccc4c3)=Nc3ccccc3S2)cc1` (stereo not given)?
GI50 [1]: 18.3 µM (inactive); GI50 [16]: 14.8 µM (inactive); GI50 [2]: 19.5 µM (inactive); GI50 [4]: 20 µM (inactive); GI50 [5]: 15.7 µM (inactive); GI50 [6]: 19.4 µM (inactive); GI50 [7]: 17 µM (inactive); GI50 [8]: 17 µM (inactive); GI50 [9]: 17.9 µM (inactive); GI50 [10]: 16.7 µM (inactive); GI50 [11]: 18.3 µM (inactive); GI50 [12]: 18.1 µM (inactive); GI50 [13]: 18.9 µM (inactive); GI50 [14]: 15.6 µM (inactive); GI50 [15]: 19.5 µM (inactive)

Which GI50 [1] does the source give for `CN(C)CCNC(=O)c1cccc2nc3ccc4ccccc4c3nc12` here?
Its GI50 is 0.0481 µM (active).

And the GI50 [16]?
The GI50 was 0.0247 µM (active).

What about the GI50 [2] of the same molecule?
The GI50 was 0.114 µM (active).

And the GI50 [3]?
Its GI50 is 0.0957 µM (active).

And the GI50 [4]?
The GI50 was 0.0931 µM (active).

What about the GI50 [5] of the same molecule?
The GI50 was 0.0726 µM (active).

What about the GI50 [8] of the same molecule?
The GI50 was 0.0592 µM (active).

What about the GI50 [9] of the same molecule?
The GI50 was 0.0989 µM (active).

What about the GI50 [10] of the same molecule?
The GI50 was 0.0652 µM (active).

And the GI50 [11]?
Its GI50 is 0.29 µM (active).

And the GI50 [12]?
The GI50 was 0.177 µM (active).

What about the GI50 [13] of the same molecule?
The GI50 was 0.105 µM (active).

And the GI50 [14]?
The GI50 was 0.12 µM (active).

And the GI50 [15]?
The GI50 was 0.212 µM (active).

`CC(=O)O/C(C)=C\C(=O)O/N=C(\N)c1ccc(C)cc1` was tested. Which GI50 [1] did it give?
Its GI50 is 40.4 µM (inactive).

What about the GI50 [16] of the same molecule?
The GI50 was 19.9 µM (inactive).

What about the GI50 [2] of the same molecule?
The GI50 was 21.1 µM (inactive).

And the GI50 [3]?
Its GI50 is 33.7 µM (inactive).

And the GI50 [4]?
The GI50 was 19.6 µM (inactive).

What about the GI50 [5] of the same molecule?
The GI50 was 34.4 µM (inactive).

And the GI50 [6]?
The GI50 was 25.4 µM (inactive).

What about the GI50 [7] of the same molecule?
Its GI50 is 21 µM (inactive).

And the GI50 [8]?
Its GI50 is 29.8 µM (inactive).

What about the GI50 [9] of the same molecule?
The GI50 was 35.2 µM (inactive).

What about the GI50 [10] of the same molecule?
Its GI50 is 20.6 µM (inactive).

And the GI50 [11]?
The GI50 was 19.6 µM (inactive).

And the GI50 [12]?
The GI50 was 28.6 µM (inactive).

What about the GI50 [13] of the same molecule?
Its GI50 is 22.3 µM (inactive).

And the GI50 [14]?
The GI50 was 19.2 µM (inactive).

What about the GI50 [15] of the same molecule?
The GI50 was 30.8 µM (inactive).
